Measurements: BindingDB's records for doi:10.1016/j.ejmech.2015.07.016 (China Pharmaceutical University, 2015)
Square brackets hold non-standard residues; d marks the D form. Peptide text beside a SMILES is read from it. pGlu = O=C1CC[C@@H](C(=O)O)N1

Tests used:
[1] = Antagonist activity at GP2b/3a receptor in New Zealand rabbit platelet-rich plasma assessed as inhibition of ADP-induced platelet aggregation preincubated for 1 min followed by addition of ADP by aggregometer
[2] = Antagonist activity at GP2b/3a receptor in New Zealand rabbit platelet-rich plasma assessed as inhibition of U46619-induced platelet aggregation preincubated for 1 min followed by addition of ADP by aggregometer
[3] = Antagonist activity at GP2b/3a receptor in New Zealand rabbit platelet-rich plasma assessed as inhibition of thrombin-induced platelet aggregation preincubated for 1 min followed by addition of ADP by aggregometer
[4] = Antagonist activity at GP2b/3a receptor in New Zealand rabbit platelet-rich plasma assessed as inhibition of collagen-induced platelet aggregation preincubated for 1 min followed by addition of ADP by aggregometer

Row | IC50 [1] [µM] | SMILES | also measured
1 | 95.7 | O=C(O)[C@H](Cc1c[nH]c2ccc(OCCCCC3CCNCC3)cc12)NS(=O)(=O)c1ccccc1 | 
2 | 108 | Cc1ccc(S(=O)(=O)N[C@@H](Cc2c[nH]c3ccc(OCCCCC4CCNCC4)cc23)C(=O)O)cc1 | 
3 | > 500 | COc1ccc(S(=O)(=O)N[C@@H](Cc2c[nH]c3ccc(OCCCCC4CCNCC4)cc23)C(=O)O)cc1 | 
4 | > 500 | COc1ccc(C(=O)N[C@@H](Cc2c[nH]c3ccc(OCCCCC4CCNCC4)cc23)C(=O)O)cc1 | 
5 | 96.1 | O=C(N[C@@H](Cc1c[nH]c2ccc(OCCCCC3CCNCC3)cc12)C(=O)O)c1cccc(F)c1 | 
6 | 24.8 | O=C(O)[C@H](Cc1c[nH]c2ccc(OCCCCC3CCNCC3)cc12)NS(=O)(=O)c1ccc(Br)cc1 | IC50 [2]: 590 µM; IC50 [3]: 124 µM; IC50 [4]: 683 µM
7 | 94.4 | O=C(N[C@@H](Cc1c[nH]c2ccc(OCCCCC3CCNCC3)cc12)C(=O)O)c1ccc(F)cc1 | 
8 | 488 | O=C(N[C@@H](Cc1c[nH]c2ccc(OCCCCC3CCNCC3)cc12)C(=O)O)c1ccc([N+](=O)[O-])cc1 | 
9 | 93.1 | O=C(O)[C@H](Cc1c[nH]c2ccc(OCCCCC3CCNCC3)cc12)NS(=O)(=O)c1ccc(F)cc1 | 
10 | 425 | O=C(O)[C@H](Cc1c[nH]c2ccc(OCCCCC3CCNCC3)cc12)NS(=O)(=O)c1ccc([N+](=O)[O-])cc1 | 
11 | 86.5 | O=C(N[C@@H](Cc1c[nH]c2ccc(OCCCCC3CCNCC3)cc12)C(=O)O)c1cc(Cl)cc(Cl)c1 | 
12 | > 500 | O=C(N[C@@H](Cc1c[nH]c2ccc(OCCCCC3CCNCC3)cc12)C(=O)O)c1ccccc1 | 
13 | > 500 | NC(=O)C[C@H](NC(=O)[C@@H]1CCC(=O)N1)C(=O)N[C@@H](Cc1c[nH]c2ccccc12)C(=O)O ([pGlu]-Asn-Trp-OH) | 
